How the values were obtained:
aldosterone = experiment: Aldosterone antagonist effect in adrenalectomized DOCA-treated rats, urinary Na+/K+ (method of C. M. Kagawa); type: in vivo; conditions: for Activity related to Spironolactone: Spironolactone = 1.0
Procedure: M. Kagawa [C. M. Kagawa et al., J. Pharmacol. Exp. Ther. 126, 123 (1959)].
18 hours after the removal of their suprarenal glands, desoxycorticosterone acetate (DOCA) was administered to groups of rats which were simultaneously treated with the test and, respectively, the reference compounds. The reference compound, i.e. Spironolactone (17α-carboxyethyl-17β-hydroxy-7α-acetylthioandrost-4-en-3-one-lactone), was administered orally in a dose of 480 μg./animal. The Na^+ and K^+ concentrations in the urine of the treated animals were determined by flame photometry. Evaluation was made on the basis of the Na^+ /K^+ proportions.

[1] = test system: vesicula seminalis gland (weight increase induced by testosterone propionate); experiment: Antiandrogenic activity in castrated testosterone propionate-treated male mice, vesicula seminalis weight (modified method of Dorfman); type: in vivo
Procedure: The antiandrogenic activity of the compounds according to the invention--anundesirable side-effect exerted by spironolactone during protracted treating--was tested by the modified method of Dorfman (R. Dorfman: Steroids 2, 185 (1963).
Castrated male mice weighing 25 to 30 g. each were treated with testosterone propionate (T.P.) in every second day. The total dose amounted to 300 μg./2 weeks/animal. The test compounds were administered parallel with the T. […] The antiandrogenic activity of a given test compound was expressed in %. If the increase in weight of the vesicula seminalis gland induced by T.P. is 100%, subtracting the weight-increase induced by the combination of T.P. and the test compound from 100, the percentage inhibition is obtained.
Each group of test amimals consisted of from 8 to 10 mice.

[2] = Rattus norvegicus, po, 480 μg/animal p.o., read-out: DOCA blocking activity
[3] = Rattus norvegicus, po, 960 μg/animal p.o., read-out: DOCA blocking activity
[4] = 5.0 mg/2 weeks/animal s.c., with testosterone propionate
[5] = 10.0 mg/2 weeks/animal s.c., with testosterone propionate

| SMILES | log (Na × 10 / K), X ± S (aldosterone; 480 μg/animal p.o., with DOCA) | Activity related to Spironolactone (aldosterone; 480 μg/animal p.o.) | log (Na × 10 / K), X ± S (aldosterone; 960 μg/animal p.o., with DOCA) | inhibition in vivo at 0.48 mg (aldosterone; [2]) [%] | inhibition in vivo at 0.96 mg (aldosterone; [3]) [%] | + Stimulation, % / - Inhibition, % [1, 4] | Increase in weight of vesicula seminalis [1, 4] [%] | further results |
| --- | --- | --- | --- | --- | --- | --- | --- | --- |
| CN1C[C@@]2(CC[C@H]3[C@@H]4CC=C5C[C@@H](F)CC[C@]5(C)[C@H]4CC[C@@]32C)OC1=O [3β-Fluoroandrost-5-ene-17S-spiro-5'-(2'-oxo-3'-methyloxazolidine)] | 0.98 | 0.80 | 1.13 | 26 | 45 |  |  |  |
| CN1C[C@@]2(CC[C@H]3[C@@H]4C=C[C@]56C[C@@H](O)CC[C@]5(C6)[C@H]4CC[C@@]32C)OC1=O [3β-Hydroxy-5β,19-cycloandrost-6-ene-17S-spiro-5'-(2'-oxo-3'-methyloxazolidine)] | 1.18 | 0.98 | 1.23 | 51 | 58 |  |  |  |
| C/C=C\N1C[C@@]2(CC[C@H]3[C@@H]4CCC5=C(CC=C(OC)C5)[C@H]4CC[C@@]32CC)OC1=O [13β-Ethyl-3-methoxygona-2,5(10)-diene-17S-spiro-5'-(2'-oxo-3'-(1"-cis-propenyl)-oxazolidine)] | 1.16 | 0.96 | 1.22 | 49 | 56 | +12.5% | 112.5 |  |
| CC[C@]12CC[C@H]3[C@@H](CCC4=CC(=NOC)CC[C@@H]43)[C@@H]1CC[C@@]21CN(C)C(=O)O1 [13β-Ethyl-3-methoxyiminogon-4-ene-17S-spiro-5'-(2'-oxo-3'-methyloxazolidine)] | 1.19 | 0.98 | 0.97 | 53 | 24 | +15.0% | 115.0 |  |
| CC[C@]12CC[C@H]3[C@@H](CCC4=CC(=O)CC[C@@H]43)[C@@H]1CC[C@@]21CN(C)C(=O)O1 [13β-Ethyl-4-en-3-one-17S-spiro-5'-(2'-oxo-3'-methyloxazolidine)] | 1.13 | 0.93 | 1.16 | 45 | 49 |  |  | log (Na × 10 / K), X ± S (aldosterone; 1920 μg/animal p.o., with DOCA): 1.30; inhibition in vivo at 1.92 mg (aldosterone; Rattus norvegicus, po, 1920 μg/animal p.o., read-out: DOCA blocking activity): 67% |
| CC[C@]12CC[C@@H]3C4=C(CC[C@H]3[C@@H]1CC[C@@]21CN(C)C(=O)O1)CC(=O)CC4 [13β-Ethylgon-5(10)-en-3-one-17S-spiro-5'-(2'-oxo-3'-methyloxazolidine)] | 1.02 | 0.84 | 1.34 | 31 | 71 | +14.0% | 114.0 |  |
| CC[C@]12C=CC3=C4CCC(=O)C=C4CC[C@H]3[C@@H]1CC[C@@]21CN(C)C(=O)O1 [13β-Ethylgona-4,9(10),11-trien-3-one-17S-spiro-5'-(2'-oxo-3'-methyloxazolidine)] |  |  |  |  |  |  |  | antialdosterone activity (aldosterone; compared with the compounds listed in Table I, result in words): negligible; inhibition against testosterone propionate (antiandrogenic activity) ([1]; 300 μg/2 weeks/animal, against 300 μg/2 weeks/animal T.P.): 70% |
| CN1C[C@@]2(CC[C@H]3[C@@H]4C=CC5=CC(=O)CC[C@]5(C)[C@H]4CC[C@@]32C)OC1=O [Androst-4,6-dien-3-one-17S-spiro-5'-(2'-oxo-3'-methyloxazolidine)] | 1.14 | 0.94 | 1.74 | 46 | 123 | -1.4% | 98.6 |  |
| CC(=O)OCC(=O)[C@H]1CC[C@H]2[C@@H]3CCC4=CC(=O)CC[C@]4(C)[C@H]3CC[C@]12C [DOCA, Pregn-4-ene-3,20-dion-21-ol-acetate, reference compound] |  |  |  |  |  |  |  | log (Na × 10 / K), X ± S (aldosterone; DOCA, 12.5 μg/animal s.c.): 0.78 |
| CN1C[C@@]2(CC[C@H]3[C@@H]4CCC5=CC(=O)CC[C@@H]5[C@H]4CC[C@@]32C)OC1=O [Oestr. 4-en-3-one-17S-spiro-5'-(2'-oxo-3'-methyloxazolidine)] | 1.26 | 1.04 | 1.12 | 61 | 44 | +13.0% | 113.0 |  |
| CC(=O)S[C@@H]1CC2=CC(=O)CC[C@]2(C)[C@H]2CC[C@@]3(C)[C@@H](CC[C@@]34CCC(=O)O4)[C@H]12 [Spironolactone, 17α-carboxyethyl-17β-hydroxy-7α-acetylthioandrost-4-en-3-one-lactone, reference compound] | 1.21 | 1.0 |  | 54 |  | -32.5% | 67.5 | inhibition (antiandrogenic activity) ([1]; 5.0 mg/2 weeks/animal s.c.): 32.5%; inhibition (antiandrogenic activity) ([1]; 10.0 mg/2 weeks/animal s.c.): 50.6%; + Stimulation, % / - Inhibition, % [1, 5]: -50.6%; Increase in weight of vesicula seminalis [1, 5]: 49.4% |
| CCC(=O)O[C@H]1CC[C@H]2[C@@H]3CCC4=CC(=O)CC[C@]4(C)[C@H]3CC[C@]12C [Testosterone propionate, testosterone propionate, reference compound] |  |  |  |  |  |  |  | Increase in weight of vesicula seminalis ([1]; testosterone propionate, 0.3 mg/2 weeks/animal): 100% |
